Counter-ions that a name gives are not always drawn. Activity calls are given as the source filed them. The calls are words filed in the database; no cut-off is given here.
Target: Matrix metalloproteinase-14 (Homo sapiens, UniProt P50281)
Test: Inhibition of truncated recombinant MT1-MMP expressed in Escherichia coli JM109 after 1 hr by fluorescence assay

Row | IC50 [µM] | Activity | SMILES
1 | 25.2 |  | CC(CC[C@@H](C)[C@H]1CC[C@H]2[C@@H]3C[C@H](OS(=O)(=O)O)[C@H]4C[C@H](OS(=O)(=O)O)[C@@H](OS(=O)(=O)O)C[C@]4(C)[C@H]3CC[C@]12C)C(C)(C)C (stereo partly drawn) [HALISTANOL SULFATE]
2 | 31.2 |  | CCCCCC/C=C\CCCCCCCCCCCCC#C[C@@H](OS(=O)(=O)O)C(=O)O [CALLYSPONGINOL SULFATE A]
3 |  | inactive | CCCCCC/C=C\CCCCCCCCCCCCC#C[C@@H](O)C(=O)O
